From patent US20230226138A1, “COMPOSITIONS AND METHODS FOR TREATING INFECTIONS AND NETOPATHY” (Black Cat Bio Limited, priority 2020, published 2023)
Like-named read-outs stand apart in the source and are kept apart here.

Assays:
Src kinase = Src kinase (Homo sapiens, UniProt P12931); conditions: cited from earlier work
[1] = animal disease models; cited from earlier work
P38MAP kinase = conditions: cited from earlier work
[2] = system: NETosis in Neutrophils (H3R8 citrullinated nucleosomes); test: NETosis quantified by release of H3R8 citrullinated nucleosomes from stimulated neutrophils; format: cell-based, human; conditions: for citrullinated nucleosomes: 4 hours
TMPRSS2 [3] = format: cell-based, human; conditions: for TMPRSS2 protein expression: relative to non-DHT stimulated control
Protocol: (§1) LNCaP and A549 cells were seeded at a density of 1×10^6 in 6-well plates and incubated for 72 hours in phenol red free RPM1-1640 and DMEM media (Lonza), supplemented with 5% and 2% double charcoal stripped FCS (First Link UK) respectively, and 2 mM I-glutamine, 100 units/ml penicillin and […] streptomycin (Sigma). Cells were treated with 100 ng/ml Epithelial Growth Factor (EGF, Sigma) or 1 nM DHT (dihydrotestosterone, Sigma) ±SA Inhibitor for 72 hrs. Cells were harvested and proteins separated using SDS-PAGE. Blots were probed with antibodies specific for TMPRSS2 (ab92323, Abcam) and α-tubulin (B-5-1-2, Sigma). Protein levels were visualized using a chemiluminescence imaging system (Fusion FX, Vilber). Densitometry was performed using Image J and TMPRSS2 levels normalised to the internal control (Tubulin).

TMPRSS2 [4] = format: cell-based, human; conditions: for TMPRSS2 protein expression: relative to non-DHT stimulated control; remark: listed apart in the source
Protocol: as §1

Neutrophils (NETosis) [5] = format: cell-based, human
Protocol: Neutrophils, isolated as described in Example 4 (or by equivalent methodology as known in the art, for example, Ficoll Density gradient and dextran sedimentation followed by Red blood cell lysis with hypertonic solution) are resuspended in phenol red free RPMI 1640 media at a density of 2×10^6 cells per milliliter and incubated for five minutes in the dark at room temperature with NUCLEAR-ID Red (membrane impermeable) DNA dye to stain nuclei (1 ml/1.5 ml of cell suspension; Enzo Life Sciences). Cells are washed three times to remove free Dye by centrifuging at 2400 RFI for 5 min to pellet the cells and replacing supernatant with 1 ml fresh phenol red free RPMI 1640 media. […]
Neutrophils are imaged within 10 min of plating using phase contrast, red (800-ms exposure), and green (400-ms exposure) channels in an IncuCyte ZOOM platform, housed inside an incubator at 37° C. with 5% CO2. […] The Number of neutrophils is then calculated as the average red count for the three images per well and the Number of green cells calculated as the average green count. The percentage of neutrophils undergoing NETosis is calculated as the average green count divide by the average red count at each time point measured.

ACE2 = conditions: 6 hrs
Protocol: (§2) LNCaP (prostate) and A549 (Androgen receptor positive, human alveolar carcinoma-derived cell line with type II pneumonocyte properties) cells were seeded in 12-well plates (2×10^5 cells per well) in phenol red free RPMI-1640 and DMEM media (Lonza), supplemented with 5% and 2% double charcoal stripped FCS (First Link UK) respectively, and 2 mM I-glutamine, 100 units/ml penicillin and […] streptomycin (Sigma). Charcoal stripping was required to remove residual traces of hormones (Sedelaar et al, (2009)). Cells were treated with 0-100 nM dihydrotestosterone (DHT, Sigma) for 6 hrs. RNA was extracted using TRIzol (Thermo Fisher Scientific) and reverse transcribed (LunaScript RT Supermix Kit, NEB). TMPRSS2 and ACE2 expression was quantified using qPCR (LightCycler 96, Roche) and the data normalized to an internal control (L19).

TMPRSS2 [6] = conditions: 6 hrs; for relative expression of TMPRSS2: LNCaP
Protocol: as §2

TMPRSS2 [7] = test: TMPRSS2 protein levels in A549 in full media (SDS-PAGE blot, densitometry); format: cell-based, human; conditions: A549, full media (10% FCS), 72 hrs
Protocol: A549 were seeded in 6-well plates at a density of 1×10^6 per well. Cells were incubated in DMEM media (Lonza), supplemented with 10% FCS (HyClone) and 2 mM !-glutamine, 100 units/ml penicillin and 100 mg/ml streptomycin (Sigma). […] Cells were treated with 0-1 μM SA Inhibitor (SEQ ID NO: 2) or 10 μM Enzalutamide (ENZA, Sigma) for 72 hrs. Cells were harvested and proteins separated using SDS-PAGE. Blots were probed with antibodies specific for TMPRSS2 (ab92323, Abcam) and α-tubulin (B-5-1-2, Sigma). Protein levels were visualized using a chemiluminescence imaging system (Fusion FX, Vilber). Densitometry was performed using Image J and TMPRSS2 levels normalized to the internal control (Tubulin).

[8] = Patient case, sterile inflammatory response following trauma (Example 11); format: in vivo, human; conditions: 4 mg/kg sub-cutaneous once daily, post traumatic sepsis, after a few days
Description: The patient is admitted to an intensive care unit and placed in an induced coma. […] The patients' cultures fail to reveal a bacterial infection. After a few days of once daily administration of the peptide, markers of Systematic Inflammatory Response Syndrome (SIRS), including temperature, heart rate and breathing rate improve. The peptide is continued to be administered until SIRS markers have returned to normal.

SARS-COV-2 infection = test: Patient case, standalone SA inhibitor to reduce viral load (Example 12); format: in vivo, human; conditions: 4 mg/kg once daily sub-cutaneous, after a few days
Description: A patient is brought into the hospital suffering from respiratory flu like symptoms. A blood sample is taken from the patient, who is confirmed by PCR analysis of viral RNA to have a SARS-COV-2 infection. […] Administration of the peptide continues until the patient is confirmed to be virus free by PCR.

Neutrophils (NETosis) [9] = test: Live cell imaging of IL8 triggered NETosis (Example 7); format: cell-based, human
Protocol: In a similar experiment to that described in Example 5, IL8 (Merck, Product Number 11645-10UG) is used to activate NETosis in response to LPS using a similar checkerboard configuration as shown in Table 4 (working IL6 concentrations 0, 1, 10 and 100 nM).

[10] = system: NETosis in Neutrophils (H3.1 nucleosomes); test: NETosis quantified by release of H3.1 nucleosomes from stimulated neutrophils; conditions: 4 hours
Protocol: The ability of SA Inhibitor to reduce NETosis in Neutrophils stimulated by lipopolysaccharide (LPS, Sigma Aldrich, Product Number L4391-1MG) alone or in combination with Epidermal growth factor (Sigma Aldrich, Product Number SRP3027-500UG) was compared to the efficacy of a Src kinase Inhibitor (PP2, Sigma Aldrich, Product Number P0042-5MG) and a PAD4 inhibitor (GSK484, Cambridge Bioscience UK, Product Number CAY17488-1 mg) which is known to down regulate NETosis by preventing citrullination of histone proteins. […]
Tube-2 was placed into the magnet and after 10 minutes incubation the clear fraction (enriched cell suspension) collected by single pipette and transferred into a fresh 50 ml conical falcon tube (Tube-3) which was placed back into the magnet for a final, third separation. The clear fraction, containing purified, isolated neutrophils was transferred into a fresh 50 ml conical falcon tube (Tube-4) and the neutrophil cell Number, % viability and yield determined by cell counting and Trypan blue exclusion. […]

COVID-19 virus infection = test: Patient case, standalone SA inhibitor, viral load and NETosis (Example 13); format: in vivo, human; conditions: 4 mg/kg once daily sub-cutaneous
[11] = Patient case, flare up of Chron's disease, dry powder inhaler (second Example 14); format: in vivo, human; conditions: one metered dose (1 mg/kg) each morning, after eight days
Protocol: […] […] The patient is advised to take one metered dose (1 mg/kg) each morning until symptoms abate.

[12] = system: Staphylococcus aureus infection; test: Patient case, bacterial infection with septic shock (Example 10); format: in vivo, human; conditions: 4 mg/kg sub-cutaneous once daily, antibiotics also administered, after a few days
Protocol: A patient is seen in the Emergency Room. The patient is running a temperature of 102° F. with a heart rate exceeding 90 beats/minute and rapid breathing. Septic shock is confirmed based on the requirement for vasopresser administration to maintain a mean arterial pressure of 65 mmHg and serum lactate level over 2 mmol/L. The patient is noted to be suffering from impaired kidney function. […] A Staphylococcus aureus infection is confirmed, and antibiotics administered. […] The peptide is continued to be administered once daily to the patient until the patient is recovered.

Neutrophils (NETosis) [13] = test: Live cell imaging of IL6 triggered NETosis (Example 6); format: cell-based, human
Protocol: In a similar experiment to that described in Example 5, IL6 (Merck, Product Number H7416-10UG) is used to activate NETosis in response to LPS using a similar checkerboard configuration as shown in Table 4 (working IL6 concentrations 0, 10, 50 and 100 ng/mL).

[14] = system: COVID-19 patient derived neutrophils (NETosis); test: Live cell imaging of NETosis in COVID-19 patient derived neutrophils (Example 8); format: cell-based, human; conditions: neutrophils from a SARSCoV-2 patient in intensive care

Chain of Src kinase (P12931 whole entry): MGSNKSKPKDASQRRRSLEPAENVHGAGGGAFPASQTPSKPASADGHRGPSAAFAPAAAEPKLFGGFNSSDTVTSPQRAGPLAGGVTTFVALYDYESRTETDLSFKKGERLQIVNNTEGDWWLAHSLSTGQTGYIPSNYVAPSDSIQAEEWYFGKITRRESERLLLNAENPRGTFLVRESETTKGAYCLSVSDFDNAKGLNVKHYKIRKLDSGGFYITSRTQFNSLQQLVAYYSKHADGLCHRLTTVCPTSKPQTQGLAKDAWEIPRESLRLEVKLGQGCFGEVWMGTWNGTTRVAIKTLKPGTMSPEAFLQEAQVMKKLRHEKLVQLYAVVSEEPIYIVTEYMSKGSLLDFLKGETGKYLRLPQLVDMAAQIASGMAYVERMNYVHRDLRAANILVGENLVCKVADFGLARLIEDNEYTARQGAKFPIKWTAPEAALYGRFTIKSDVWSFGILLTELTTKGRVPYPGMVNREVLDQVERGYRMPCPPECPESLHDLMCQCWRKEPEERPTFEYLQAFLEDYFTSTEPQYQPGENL

Molecule: O=C(O)c1cccnc1 [Niacin]
- Src kinase activity (Src kinase): inhibited
- chemically induced lung fibrosis [1]: reduced
- P38MAP kinase activity (P38MAP kinase): inhibited

Molecule: COc1cc(C(=O)N2CC[C@@H](O)[C@@H](N)C2)cc2nc(-c3cc4ccccc4n3CC3CC3)n(C)c12 [PAD4i, reference compound]
- suppression of NETosis by citrullinated nucleosome marker ([2]; LPS or LPS and EGF (FIG. 4C, 4D), inhibitor 0.1-10 uM): dose response reduction in citrullinated nucleosomes levels

Molecule: C[C@]12CCC(=O)C[C@@H]1CC[C@@H]1[C@@H]2CC[C@]2(C)[C@@H](O)CC[C@@H]12 [dihydrotestosterone]
- TMPRSS2 relative expression (TMPRSS2 [3]): 168%
- TMPRSS2 relative expression (TMPRSS2 [4]): 120.9%
- level of NETosis (percentage of neutrophils undergoing NETosis) (Neutrophils (NETosis) [5]): increased with increasing concentrations of dihydrotestosterone
- relative expression of ACE2 (ACE2; A549, 0-100 nM dihydrotestosterone): slight negative correlation with dihydrotestosterone concentration
- expression of ACE2, dose response to stimulation (ACE2; LNCaP, 0-100 nM dihydrotestosterone): TMPRSS2, but not ACE2, showed a dose response
- TMPRSS2 expression increase (TMPRSS2 [6]; A549, 1 nM dihydrotestosterone, compared to cells grown in the absence of dihydrotestosterone): over 2 ×
- relative expression of TMPRSS2 (TMPRSS2 [6]; 0.1 nM dihydrotestosterone, compared to cells grown in the absence of dihydrotestosterone): approximately 3 ×
- relative expression of TMPRSS2 (TMPRSS2 [6]; 10 nM dihydrotestosterone, compared to the control): 6 ×

Molecule: CNC(=O)c1ccc(N2C(=S)N(c3ccc(C#N)c(C(F)(F)F)c3)C(=O)C2(C)C)cc1F [enzalutamide, Enzalutamide, reference compound]
- expression of TMPRSS2 protein (TMPRSS2 [7]; 10 μM Enzalutamide): did not achieve down regulation

Molecule: Ac-Pro-Pro-Pro-His-Pro-His-Ala-Arg-Ile-Lys-NH2 (Ac-PPPHPHARIK-NH2) [SA Inhibitor]
- markers of SIRS (temperature, heart rate, breathing rate) [8]: improve
- viral load as determined by PCR (SARS-COV-2 infection): lower than what would have been expected in the absence of the administration of the peptide
- effect on IL8 increased NETosis (Neutrophils (NETosis) [9]; LPS trigger plus IL8, SA Inhibitor checkerboard as Table 4): This increase is reversed
- H3.1 NETosis derived nucleosome levels ([10]; LPS in combination with EGF, without inhibitor 641.9 ng/mL, inhibitor concentration not stated): 254.2 ng/mL
- H3.1 nucleosomes released ([10]; LPS trigger, 0.1 uM SA Inhibitor, LPS alone 523.2 ng/mL): 339.4 ng/mL
- effect on EGF suppression of TMPRSS2 expression (TMPRSS2 [3]; EGF alone and with DHT, cell line not specified (LNCaP and A549 tested)): reversed this inhibitory effect
- TMPRSS2 protein expression (TMPRSS2 [3]; LNCaP, SA Inhibitor in the absence of DHT stimulation, 72 hrs): 58.7%
- TMPRSS2 protein expression (TMPRSS2 [3]; LNCaP, SA Inhibitor with DHT stimulation (1 nM), 72 hrs): 60.4%
- TMPRSS2 protein expression (TMPRSS2 [4]; A549, SA Inhibitor in the absence of DHT stimulation, 72 hrs): 77.6%
- TMPRSS2 protein expression (TMPRSS2 [4]; A549, SA Inhibitor with DHT stimulation (1 nM), 72 hrs): 70.2%
- effect on DHT increased NETosis (Neutrophils (NETosis) [5]; 20 ug/mL LPS trigger plus DHT, SA Inhibitor 1 nM-1 mM, 30 minutes preincubation): This increase is reversed
- lung function / SpO2 (COVID-19 virus infection): improved lung function with a higher measured SpO2 level
- viral load, as measured by PCR (COVID-19 virus infection; after a few days): reduced and lower than would be expected in the absence of the peptide
- expression of TMPRSS2 protein (TMPRSS2 [7]; 0-1 μM SA Inhibitor): decreased expression up to 10 nM SA Inhibitor followed by a progressive increase up to 1 μM
- Chron's disease flare up outcome [11]: goes back into remission
- citrullinated nucleosomes ([2]; LPS trigger, 0.1 uM SA Inhibitor, LPS alone 158 ng/mL): 126.5 ng/mL
- citrullinated nucleosomes ([2]; LPS trigger, 10 uM SA Inhibitor, LPS alone 158 ng/mL): 66.6 ng/mL
- citrullinated nucleosomes ([2]; combined LPS and EGF, 0.1 uM SA Inhibitor, without inhibitor 208.5 ng/mL): 111.1 ng/mL
- kidney function [12]: returns to normal
- markers of SIRS (temperature, heart rate, breathing rate) [12]: improve
- effect on IL6 increased NETosis (Neutrophils (NETosis) [13]; LPS trigger plus IL6, SA Inhibitor checkerboard as Table 4): This increase is reversed
- level of NETosis [14]: shown to decrease in the treated neutrophils

Molecule: EGF: Epithelial Growth Factor (EGF, Sigma) (NSDSECPLSHDGYCLHDGVCMYIEALDKYACNCVVGYIGERCQYRDLKWWELR; UniProt P01133 971-1023, looked up) [reference compound]
- TMPRSS2 relative expression (TMPRSS2 [3]; LNCaP, 100 ng/ml EGF, 72 hrs): 62.8%
- TMPRSS2 relative expression (TMPRSS2 [4]; A549, 100 ng/ml EGF, 72 hrs): 797%

Molecule: IL6: IL6 (Merck) used to activate NETosis in response to LPS [reference compound]
- level of NETosis (Neutrophils (NETosis) [13]; LPS trigger, IL6 0, 10, 50 and 100 ng/mL): increased with increasing concentrations of IL6

Molecule: IL8: IL8 (Merck) used to activate NETosis in response to LPS [reference compound]
- level of NETosis (Neutrophils (NETosis) [9]; LPS trigger, IL8 0, 1, 10 and 100 nM): increased with increasing concentrations of IL8
